We go through 43 molecules from patent publication US7829063B2, “Development of molecular imaging probes for carbonic anhydrase-IX using click chemistry” (Siemens Medical Solutions USA, Inc., priority 2007, dated 2010).

The test deals with T1, CA-IX (Homo sapiens, UniProt Q16790).
T1 construct: His tag (C); purchased R&D Systems Inc. 2188-CA; host or cells: mouse myeloma cell line NS0
Briefly: Binding affinity (Kd) determination for CA-IX inhibitors, DNSA fluorescence competition assay, Scatchard plots. The conditions noted are these: Table 3. How it is done:
General. […] The human red blood cells were obtained from Research Blood Components, LLC. All absorbance measurements were performed on a SPECTRA MAX M2 plate reader at 25° C. The LC/MS analyses were performed on an Agilent 1100 series LC/MSD (SL) using a 30×2.1 mm Zorbax C8 column with a Phenomenex C18 pre-column. Compound detection was accomplished by electrospray mass spectroscopy in positive selected ion mode (LC/MS-SIM). The elution solvents were acetonitrile and water, contained 0.05% TFA. Nuclear magnetic resonance (NMR) spectra were obtained on a Bruker AMX 300 MHz spectrometer or a Varian 400. 19F NMR spectra were recorded on a Bruker AMX 282.35 MHz or a Varian 400 spectrometer. The mass spectra were recorded on an Agilent 1100 series LC/MSD with electrospray mass spectroscopic detection. Flash column chromatography was performed on Merck silica gel (40-63 μm) using the solvent system indicated. The radiochemical and chemical purities were analyzed by RP-HPLC.
General Procedure of Binding Affinity (Ka) Determination for CA-IX Inhibitors
The assay was based on the observation that the only fluorescence signal detected at 460 nm upon excitation at 290 nm, an absorption […] for DNSA, was that of the DNSA.CA complex. […] The latter were developed for each test compound using mass balance for calculating the concentration of CA bound to DNSA [DNSA.CA], bound to the non-fluorescent sample [CA.Inh] and free CA [CA] in solution. The Kd values were determined from Scatchard plots using the equation below as described by Whitesides et al. [CA.Inh]/[CA]tot.[Inh]=K11^inh−K11^inh{[CA.Inh]+[CA.DNSA]}/([CA]tot)
The terms [CA.DNSA], [CA.Inh], and free CA were calculated using the mass balance based on the known values for the dissociation constant of CA.DNSA and the total concentration of CA in each reaction.

A word on the Kd: it is the concentration at which binding is half-saturated. For `CC(C)[C@@H](C(=O)NCc1ccc(C(F)(F)F)cc1)n1cc(COc2ccc3nc(S(N)(=O)=O)sc3c2)nn1` [DHK2-24], binding was characterised by a dissociation constant (Kd) of 1 nM.

For `CCOC(=O)C1CCN(C(=O)[C@H](C(C)C)n2cc(COc3ccc4nc(S(N)(=O)=O)sc4c3)nn2)CC1` [DHK2-41], the Kd was 5 nM.

Regarding `CC(C)[C@@H](C(=O)NCC1COc2ccccc2O1)n1cc(COc2ccc3nc(S(N)(=O)=O)sc3c2)nn1` (stereo partly shown) [DHK2-44], binding was characterised by a dissociation constant (Kd) of 5 nM.

In the case of `NS(=O)(=O)c1nc2ccc(OCc3cn([C@@H](Cc4ccccc4)C(=O)NCc4ccc(C(F)(F)F)cc4)nn3)cc2s1` [DHK2-51, (S)-3-phenyl-2-(4-((2-sulfamoylbenzo[d]thiazol-6-yloxy)methyl)-1H-1,2,3-triazol-1-yl)-N-(4-(trifluoromethyl)benzyl)propanamide], the affinity, expressed as Kd, was 2.5 nM.

In turn, `Cc1onc(-c2ccccc2)c1CNC(=O)[C@H](Cc1ccccc1)n1cc(COc2ccc3nc(S(N)(=O)=O)sc3c2)nn1` [DHK2-66] yielded a dissociation constant (Kd) of 2 nM.

With `CCOC(=O)C1CCN(C(=O)[C@H](Cc2ccccc2)n2cc(COc3ccc4nc(S(N)(=O)=O)sc4c3)nn2)CC1` [DHK2-68], the dissociation constant Kd came to 3.4 nM.

On to `NS(=O)(=O)c1nc2ccc(OCc3cn([C@@H](Cc4ccccc4)C(=O)NCC4COc5ccccc5O4)nn3)cc2s1` (stereo partly shown) [DHK2-71], for which the dissociation constant (Kd) worked out at 2.5 nM.

`CC(C)[C@@H](C(=O)N1CCC(C(=O)O)CC1)n1cc(COc2ccc3nc(S(N)(=O)=O)sc3c2)nn1` [DHK2-84] yielded a Kd of 10 nM.

The molecule `NS(=O)(=O)c1nc2ccc(OCc3cn([C@@H](Cc4ccccc4)C(=O)N4CCC(C(=O)O)CC4)nn3)cc2s1` [DHK2-94] gave an equilibrium dissociation constant (Kd) of 10 nM.

In turn, `CC(C)[C@@H](C(=O)NCc1ccc(CN(C)C)o1)n1cc(-c2ccc(S(N)(=O)=O)cc2)nn1` [DHK2-95] gave a Kd of 25 nM.

In turn, `CCOC(=O)C1CCN(C(=O)[C@H](Cc2ccc(OCCF)cc2)n2cc(COc3ccc4nc(S(N)(=O)=O)sc4c3)nn2)CC1` [DHK2-118] yielded a Kd of 5 nM.

In turn, `NS(=O)(=O)c1nc2ccc(OCc3cn([C@@H](Cc4ccc(OCCF)cc4)C(=O)NCc4ccc(C(F)(F)F)cc4)nn3)cc2s1` [DHK2-119] showed a Kd of 3.4 nM.

Regarding `NS(=O)(=O)c1nc2ccc(OCc3cn([C@@H](Cc4ccc(OCCF)cc4)C(=O)N4CCC(C(=O)O)CC4)nn3)cc2s1` [DHK2-120], the Kd came to 5 nM.

`COC(=O)[C@H](Cc1ccc(C(F)(F)F)cc1)NC(=O)[C@H](Cc1ccc(OCCF)cc1)n1cc(COc2ccc3nc(S(N)(=O)=O)sc3c2)nn1` [DHK2-127, (S)-methyl 2-((S)-3-(4-(2-fluoroethoxy)phenyl)-2-(4-((2-sulfamoylbenzo[d]thiazol-6-yloxy)methyl)-1H-1,2,3-triazol-1-yl)propanamido)-3-(4-(trifluoromethyl)phenyl)propanoate] returned an equilibrium dissociation constant (Kd) of 2 nM.

Consider `COC(=O)C[C@H](NC(=O)[C@H](Cc1ccc(OCCF)cc1)n1cc(COc2ccc3nc(S(N)(=O)=O)sc3c2)nn1)c1ccccc1` [DHK2-128], for which the Kd was found to be 10 nM.

The molecule `COC(=O)[C@H](Cc1ccc(C(F)(F)F)cc1)NC(=O)[C@H](C(C)C)n1cc(COc2ccc3nc(S(N)(=O)=O)sc3c2)nn1` [DHK2-129] displayed a Kd of 1.2 nM.

`COC(=O)C[C@H](NC(=O)[C@H](C(C)C)n1cc(COc2ccc3nc(S(N)(=O)=O)sc3c2)nn1)c1ccc(C(F)(F)F)cc1` [DHK2-130] came in with a Kd of 5 nM.

`CC(C)[C@@H](C(=O)N[C@@H](Cc1ccc(C(F)(F)F)cc1)C(=O)O)n1cc(COc2ccc3nc(S(N)(=O)=O)sc3c2)nn1` [DHK2-132] returned a dissociation constant (Kd) of 0.5 nM.

Regarding `CC(C)[C@@H](C(=O)N[C@@H](CC(=O)O)c1ccc(C(F)(F)F)cc1)n1cc(COc2ccc3nc(S(N)(=O)=O)sc3c2)nn1` [DHK2-133], the Kd is 1.7 nM.

`NS(=O)(=O)c1nc2ccc(OCc3cn([C@@H](Cc4ccc(OCCF)cc4)C(=O)N[C@@H](Cc4ccc(C(F)(F)F)cc4)C(=O)O)nn3)cc2s1` [DHK2-134, (S)-2-((S)-3-(4-(2-fluoroethoxy)phenyl)-2-(4-((2-sulfamoylbenzo[d]thiazol-6-yloxy)methyl)-1H-1,2,3-triazol-1-yl)propanamido)-3-(4-(trifluoromethyl)phenyl)propanoic acid] gave a Kd of 0.5 nM.

`NS(=O)(=O)c1nc2ccc(OCc3cn([C@@H](Cc4ccc(OCCF)cc4)C(=O)N[C@@H](CC(=O)O)c4ccccc4)nn3)cc2s1` [DHK2-135] displayed a Kd of 5 nM.

The molecule `C[N+](C)(C)C[C@H](O)CC(=O)NCCCC[C@@H](C(=O)NCc1ccc(C(F)(F)F)cc1)n1cc(COc2ccc3nc(S(N)(=O)=O)sc3c2)nn1` [DHK2-147] displayed a dissociation constant Kd of 11 nM.

`N[C@@H](CO)C(=O)NCCCC[C@@H](C(=O)NCc1ccc(C(F)(F)F)cc1)n1cc(COc2ccc3nc(S(N)(=O)=O)sc3c2)nn1` [DHK2-157] registered a Kd of 25 nM.

Regarding `CC(C)[C@@H](C(=O)N[C@H](Cc1ccc(C(F)(F)F)cc1)C(=O)O)n1cc(COc2ccc3nc(S(N)(=O)=O)sc3c2)nn1` [DHK2-160-F1], the Kd worked out at 10 nM.

`CC(C)[C@@H](C(=O)N[C@H](Cc1ccc(C(F)(F)F)cc1)C(=O)O)n1cc(COc2ccc3nc(S(N)(=O)=O)sc3c2)nn1` [DHK2-160-F2] had a Kd of 5 nM.

Take `NS(=O)(=O)c1nc2ccc(OCc3cn([C@@H](Cc4ccc(OCCF)cc4)C(=O)N[C@H](Cc4ccc(C(F)(F)F)cc4)C(=O)O)nn3)cc2s1` [DHK2-161]: binding was put at a Kd of 5 nM.

The molecule `NS(=O)(=O)c1nc2ccc(OCc3cn([C@@H](Cc4ccc(OCC(O)CF)cc4)C(=O)N[C@@H](Cc4ccc(C(F)(F)F)cc4)C(=O)O)nn3)cc2s1` (stereo partly drawn) [DHK2-173, (2S)-2-((2S)-3-(4-(3-fluoro-2-hydroxypropoxy)phenyl)-2-(4-((2-sulfamoylbenzo[d]thiazol-6-yloxy)methyl)-1H-1,2,3-triazol-1-yl)propanamido)-3-(4-(trifluoromethyl)phenyl)propanoic acid] returned an equilibrium dissociation constant (Kd) of 2 nM.

`NS(=O)(=O)c1nc2ccc(OCc3cn([C@@H](Cc4ccc(OCCF)cc4)C(=O)NCc4ccc(OC(F)(F)F)cc4)nn3)cc2s1` [DHK2-176] gave a Kd of 5 nM.

As for `NS(=O)(=O)c1nc2ccc(OCc3cn([C@@H](Cc4ccc(OCCF)cc4)C(=O)N[C@@H](Cc4c[nH]c5ccccc45)C(=O)O)nn3)cc2s1` [DHK2-180], the affinity, expressed as Kd, was 14 nM.

`NS(=O)(=O)c1nc2ccc(OCc3cn([C@@H](Cc4ccc(OCCF)cc4)C(=O)NC(Cc4cccc(C(F)(F)F)c4)C(=O)O)nn3)cc2s1` (stereo partly shown) [DHK2-181] showed a dissociation constant (Kd) of 2 nM.

`N#Cc1ccc(C[C@H](CC(=O)[C@H](Cc2ccc(OCCF)cc2)n2cc(COc3ccc4nc(S(N)(=O)=O)sc4c3)nn2)C(=O)O)cc1` [DHK2-187] returned a dissociation constant (Kd) of 17 nM.

Regarding `COCCOCCOCCOCCC(=O)NCCOc1cccc(CSC[C@@H](NC(=O)Cn2cc(COc3ccc4nc(S(N)(=O)=O)sc4c3)nn2)C(=O)O)c1` [DHK3-48], binding was put at a Kd of 10 nM.

On to `NCCOc1cccc(COCC(NC(=O)Cn2cc(COc3ccc4nc(S(N)(=O)=O)sc4c3)nn2)C(=O)O)c1` (stereo not shown) [DHK3-149], for which the Kd was found to be 10 nM.

With `NS(=O)(=O)c1nc2ccc(OCc3cn(CC(=O)NC(COCc4cccc(OCCNC(=O)CCC(=O)O)c4)C(=O)O)nn3)cc2s1` (stereo not shown) [DHK3-154], binding was characterised by a dissociation constant (Kd) of 25 nM.

The molecule `NCC1OC(C(=O)NCCOc2cccc(COCC(NC(=O)Cn3cc(COc4ccc5nc(S(N)(=O)=O)sc5c4)nn3)C(=O)O)c2)C(O)C(O)C1O` (stereo not shown) [DHK3-155] registered a Kd of 11 nM.

Turning to `C[N+](C)(C)C[C@H](O)CC(=O)NCCOc1cccc(COCC(NC(=O)Cn2cc(COc3ccc4nc(S(N)(=O)=O)sc4c3)nn2)C(=O)O)c1` (stereo partly shown) [DHK3-156], the dissociation constant (Kd) was 10 nM.

Molecule `NS(=O)(=O)c1nc2ccc(OCc3cn(CC(=O)NC(COCc4cccc(OCCNC(=O)CN(CCO)CCO)c4)C(=O)O)nn3)cc2s1` (stereo not shown) [DHK3-158] returned a dissociation constant Kd of 14 nM.

For the molecule `NS(=O)(=O)c1nc2ccc(OCc3cn(Cc4ccc(C(=O)O)cc4)nn3)cc2s1` [DHK159], the equilibrium dissociation constant (Kd) is 14.1 nM.

As to `Cc1cc[n+](C)c(NC(=O)[C@H](Cc2ccccc2)n2cc(-c3ccc(S(N)(=O)=O)cc3)nn2)c1` [DHK160], the dissociation constant (Kd) was 20 nM.

Molecule `NS(=O)(=O)c1nc2ccc(OCc3cn(CC(=O)N[C@@H](CSCc4ccccc4)C(=O)O)nn3)cc2s1` [DHK161] gave a Kd of 10 nM.

Regarding `NS(=O)(=O)c1nc2ccc(OCc3cn(CC(=O)N[C@@H](Cc4ccc(OCCF)cc4)C(=O)O)nn3)cc2s1` [UG3150, (S)-3-(4-(2-fluoroethoxy)phenyl)-2-(2-(4-((2-sulfamoylbenzo[d]thiazol-6-yloxy)methyl)-1H-1,2,3-triazol-1-yl)acetamido)propanoic acid], binding was characterised by a dissociation constant (Kd) of 3.3 nM.

Turning to `NS(=O)(=O)c1nc2cc(OCc3cn(CC(=O)N[C@@H](CSCc4cccc(OCCF)c4)C(=O)O)nn3)ccc2s1` [VM2-41], the affinity, expressed as Kd, was 5 nM.

`COC(=O)[C@@H](CSCc1cccc(O)c1)NC(=O)[C@H](CCO)n1cc(COc2ccc3nc(S(N)(=O)=O)sc3c2)nn1` [VM2-93] had a dissociation constant Kd of 10 nM.
